Assay results reported in ChEMBL document CHEMBL3885861, “Open TG-GATES”.

Species: Rattus norvegicus
Assay: Open TG-GATES - Regimen: Single
Assay type: toxicity, organism-based, Sprague-Dawley
Set-up: regimen Single, gender Male, age 6 weeks
Conditions: in vivo, po, route gavage; for APTT / Bas / Eos / Fbg / Hb / Ht / Lym / MCH / MCHC / MCV / Mono / Neu / PT / Plat / RBC / Ret / WBC: tissue Blood; for KIDNEY_L / KIDNEY_R / KIDNEY_TOTAL: tissue Kidney; for LIVER: tissue Liver; for A/G / ALP / ALT / AST / BUN / CRE / Ca / Cl / DBIL / GLC / IP / K / LDH / Na / PL / RALB / TBIL / TC / TG / TP / gamma-GTP: tissue Plasma
[1] = 100 mg/kg, 3 h, dose level Middle
[2] = 100 mg/kg, 6 h, dose level Middle
[3] = 100 mg/kg, 9 h, dose level Middle
[4] = 100 mg/kg, 24 h, dose level Middle
[5] = 300 mg/kg, 3 h, dose level High
[6] = 300 mg/kg, 6 h, dose level High
[7] = 300 mg/kg, 9 h, dose level High
[8] = 300 mg/kg, 24 h, dose level High

## CCCNC(=O)NS(=O)(=O)c1ccc(Cl)cc1 [CHLORPROPAMIDE]
[1]
  TERMINAL_BW: 198.7 g
  APTT: 19.6 s
  Bas: 0%
  Eos: 1%
  Fbg: 311.8 mg/dL
  Hb: 13.9 g/dL
  Ht: 42.7%
  Lym: 73.2%
  MCH: 21.4 pg
  MCHC: 32.5%
  MCV: 66 fL
  Mono: 3.8%
  Neu: 20.8%
  PT: 15.6 s
  Plat: 113.1 x10_4/uL
  RBC: 648.4 x10_4/ul
  Ret: 9.2%
  WBC: 72.2 x10_2/uL
  KIDNEY_L: 0.9 g
  KIDNEY_R: 0.9 g
  KIDNEY_TOTAL: 1.8 g
  LIVER: 8.8 g
  A/G: 0.9
  ALP: 1315.6 IU/L
  ALT: 48.8 IU/L
  AST: 80 IU/L
  BUN: 11.2 mg/dL
  CRE: 0.2 mg/dL
  Ca: 10.8 mg/dL
  Cl: 107.8 meq/L
  DBIL: 0.01 mg/dL
  GLC: 126.4 mg/dL
  IP: 9.2 mg/dL
  K: 3.8 meq/L
  LDH: 71.6 IU/L
  Na: 144.6 meq/L
  PL: 129 mg/dL
  RALB: 2.6 g/dL
  TBIL: 0.02 mg/dL
  TC: 74.6 mg/dL
  TG: 71 mg/dL
  TP: 5.7 g/dL
  gamma-GTP: 1.4 IU/L
[2]
  TERMINAL_BW: 194.9 g
  APTT: 23.7 s
  Bas: 0.2%
  Eos: 1%
  Fbg: 317 mg/dL
  Hb: 13.6 g/dL
  Ht: 41.9%
  Lym: 71.6%
  MCH: 21.7 pg
  MCHC: 32.4%
  MCV: 66.9 fL
  Mono: 3.6%
  Neu: 22.4%
  PT: 15.1 s
  Plat: 122.2 x10_4/uL
  RBC: 627 x10_4/ul
  Ret: 9.8%
  WBC: 96.8 x10_2/uL
  KIDNEY_L: 0.9 g
  KIDNEY_R: 0.8 g
  KIDNEY_TOTAL: 1.7 g
  LIVER: 8 g
  A/G: 0.9
  ALP: 1525.8 IU/L
  ALT: 44.2 IU/L
  AST: 80.8 IU/L
  BUN: 12.6 mg/dL
  CRE: 0.2 mg/dL
  Ca: 11 mg/dL
  Cl: 109 meq/L
  DBIL: 0.002 mg/dL
  GLC: 123.8 mg/dL
  IP: 9.9 mg/dL
  K: 4 meq/L
  LDH: 81 IU/L
  Na: 143.8 meq/L
  PL: 139.6 mg/dL
  RALB: 2.6 g/dL
  TBIL: 0.02 mg/dL
  TC: 85.4 mg/dL
  TG: 49.8 mg/dL
  TP: 5.7 g/dL
  gamma-GTP: 1.2 IU/L
[3]
  TERMINAL_BW: 194.2 g
  APTT: 17.1 s
  Bas: 0%
  Eos: 1%
  Fbg: 307.8 mg/dL
  Hb: 13.1 g/dL
  Ht: 40.7%
  Lym: 71.4%
  MCH: 20.9 pg
  MCHC: 32.3%
  MCV: 64.8 fL
  Mono: 3%
  Neu: 24%
  PT: 15.1 s
  Plat: 119.5 x10_4/uL
  RBC: 627.4 x10_4/ul
  Ret: 10%
  WBC: 82.5 x10_2/uL
  KIDNEY_L: 0.9 g
  KIDNEY_R: 0.9 g
  KIDNEY_TOTAL: 1.8 g
  LIVER: 7.8 g
  A/G: 0.9
  ALP: 1124.6 IU/L
  ALT: 35.6 IU/L
  AST: 77 IU/L
  BUN: 9.8 mg/dL
  CRE: 0.2 mg/dL
  Ca: 10.7 mg/dL
  Cl: 107.6 meq/L
  DBIL: 0 mg/dL
  GLC: 119.4 mg/dL
  IP: 10.1 mg/dL
  K: 3.9 meq/L
  LDH: 68.6 IU/L
  Na: 143.2 meq/L
  PL: 120.4 mg/dL
  RALB: 2.5 g/dL
  TBIL: 0.026 mg/dL
  TC: 70.8 mg/dL
  TG: 37 mg/dL
  TP: 5.4 g/dL
  gamma-GTP: 1.2 IU/L
[4]
  TERMINAL_BW: 210.9 g
  APTT: 20 s
  Bas: 0%
  Eos: 1%
  Fbg: 318.2 mg/dL
  Hb: 12.6 g/dL
  Ht: 39.1%
  Lym: 73%
  MCH: 21 pg
  MCHC: 32.2%
  MCV: 65.2 fL
  Mono: 3.6%
  Neu: 21%
  PT: 15.8 s
  Plat: 111.8 x10_4/uL
  RBC: 599.4 x10_4/ul
  Ret: 9.2%
  WBC: 97.9 x10_2/uL
  KIDNEY_L: 0.9 g
  KIDNEY_R: 1 g
  KIDNEY_TOTAL: 1.9 g
  LIVER: 9.6 g
  A/G: 0.9
  ALP: 1496.2 IU/L
  ALT: 45.4 IU/L
  AST: 70.2 IU/L
  BUN: 15.6 mg/dL
  CRE: 0.2 mg/dL
  Ca: 10.9 mg/dL
  Cl: 105.8 meq/L
  DBIL: 0.004 mg/dL
  GLC: 177.4 mg/dL
  IP: 8.4 mg/dL
  K: 3.7 meq/L
  LDH: 87.2 IU/L
  Na: 143 meq/L
  PL: 145 mg/dL
  RALB: 2.6 g/dL
  TBIL: 0.032 mg/dL
  TC: 81.4 mg/dL
  TG: 63.6 mg/dL
  TP: 5.5 g/dL
  gamma-GTP: 1 IU/L
[5]
  TERMINAL_BW: 198 g
  APTT: 20.5 s
  Bas: 0%
  Eos: 0.6%
  Fbg: 309.8 mg/dL
  Hb: 14.6 g/dL
  Ht: 45.2%
  Lym: 74.8%
  MCH: 20.8 pg
  MCHC: 32.2%
  MCV: 64.6 fL
  Mono: 4.6%
  Neu: 18.6%
  PT: 15.7 s
  Plat: 121.4 x10_4/uL
  RBC: 700.6 x10_4/ul
  Ret: 9.7%
  WBC: 57 x10_2/uL
  KIDNEY_L: 0.8 g
  KIDNEY_R: 0.9 g
  KIDNEY_TOTAL: 1.7 g
  LIVER: 9.1 g
  A/G: 0.9
  ALP: 1404.2 IU/L
  ALT: 46.4 IU/L
  AST: 80.8 IU/L
  BUN: 12 mg/dL
  CRE: 0.2 mg/dL
  Ca: 10.8 mg/dL
  Cl: 105.4 meq/L
  DBIL: 0.008 mg/dL
  GLC: 147.4 mg/dL
  IP: 10.1 mg/dL
  K: 3.8 meq/L
  LDH: 86 IU/L
  Na: 143.8 meq/L
  PL: 126.8 mg/dL
  RALB: 2.8 g/dL
  TBIL: 0.018 mg/dL
  TC: 71.8 mg/dL
  TG: 60 mg/dL
  TP: 6 g/dL
  gamma-GTP: 1 IU/L
[6]
  TERMINAL_BW: 195 g
  APTT: 19.7 s
  Bas: 0%
  Eos: 1%
  Fbg: 344.4 mg/dL
  Hb: 14.6 g/dL
  Ht: 44.7%
  Lym: 72.2%
  MCH: 21.7 pg
  MCHC: 32.6%
  MCV: 66.6 fL
  Mono: 4.2%
  Neu: 21.4%
  PT: 16.1 s
  Plat: 105.8 x10_4/uL
  RBC: 670.8 x10_4/ul
  Ret: 9%
  WBC: 59.6 x10_2/uL
  KIDNEY_L: 0.9 g
  KIDNEY_R: 0.9 g
  KIDNEY_TOTAL: 1.8 g
  LIVER: 8 g
  A/G: 0.9
  ALP: 1619.2 IU/L
  ALT: 45.2 IU/L
  AST: 77.4 IU/L
  BUN: 14.8 mg/dL
  CRE: 0.2 mg/dL
  Ca: 10.9 mg/dL
  Cl: 106.2 meq/L
  DBIL: 0.004 mg/dL
  GLC: 108.4 mg/dL
  IP: 10.2 mg/dL
  K: 4.1 meq/L
  LDH: 82.6 IU/L
  Na: 143.2 meq/L
  PL: 135.8 mg/dL
  RALB: 2.8 g/dL
  TBIL: 0.018 mg/dL
  TC: 79.8 mg/dL
  TG: 46.6 mg/dL
  TP: 6 g/dL
  gamma-GTP: 1.2 IU/L
[7]
  TERMINAL_BW: 193.3 g
  APTT: 19.1 s
  Bas: 0.4%
  Eos: 0.8%
  Fbg: 391.6 mg/dL
  Hb: 13.4 g/dL
  Ht: 41.5%
  Lym: 72.2%
  MCH: 21.3 pg
  MCHC: 32.3%
  MCV: 65.8 fL
  Mono: 3%
  Neu: 23.2%
  PT: 16.8 s
  Plat: 118.3 x10_4/uL
  RBC: 629.8 x10_4/ul
  Ret: 8.9%
  WBC: 93.5 x10_2/uL
  KIDNEY_L: 0.9 g
  KIDNEY_R: 0.9 g
  KIDNEY_TOTAL: 1.7 g
  LIVER: 8.2 g
  A/G: 0.9
  ALP: 1339.6 IU/L
  ALT: 46.8 IU/L
  AST: 83.2 IU/L
  BUN: 15.4 mg/dL
  CRE: 0.2 mg/dL
  Ca: 10.9 mg/dL
  Cl: 106.4 meq/L
  DBIL: 0.008 mg/dL
  GLC: 96.8 mg/dL
  IP: 10.3 mg/dL
  K: 3.9 meq/L
  LDH: 85.2 IU/L
  Na: 143.6 meq/L
  PL: 127.8 mg/dL
  RALB: 2.7 g/dL
  TBIL: 0.022 mg/dL
  TC: 72.4 mg/dL
  TG: 50.6 mg/dL
  TP: 5.8 g/dL
  gamma-GTP: 1.2 IU/L
[8]
  TERMINAL_BW: 201.3 g
  APTT: 21.1 s
  Bas: 0%
  Eos: 1%
  Fbg: 308 mg/dL
  Hb: 13.2 g/dL
  Ht: 41.1%
  Lym: 81.2%
  MCH: 20.4 pg
  MCHC: 32.1%
  MCV: 63.5 fL
  Mono: 3%
  Neu: 13.6%
  PT: 16.2 s
  Plat: 114.9 x10_4/uL
  RBC: 647.2 x10_4/ul
  Ret: 7%
  WBC: 88.4 x10_2/uL
  KIDNEY_L: 0.9 g
  KIDNEY_R: 0.9 g
  KIDNEY_TOTAL: 1.8 g
  LIVER: 8.5 g
  A/G: 0.9
  ALP: 1944.4 IU/L
  ALT: 46.8 IU/L
  AST: 75 IU/L
  BUN: 15.4 mg/dL
  CRE: 0.2 mg/dL
  Ca: 10.8 mg/dL
  Cl: 108 meq/L
  DBIL: 0.008 mg/dL
  GLC: 185.4 mg/dL
  IP: 8.1 mg/dL
  K: 3.6 meq/L
  LDH: 74 IU/L
  Na: 142.2 meq/L
  PL: 129.6 mg/dL
  RALB: 2.7 g/dL
  TBIL: 0.022 mg/dL
  TC: 74.8 mg/dL
  TG: 45.4 mg/dL
  TP: 5.7 g/dL
  gamma-GTP: 1 IU/L
